# Experiments:
# [1] = molecular target: T1, Bifunctional epoxide hydrolase 2 (Homo sapiens) (UniProt P34913); assay: Inhibition of recombinant human sEH expressed in Escherichia coli assessed as inhibition of substrate PHOME hydrolysis to 6-methoxy-2-naphthaldehyde at 10 ug/ml after 5 mins by fluorescence assay
# T1 sequence (whole entry): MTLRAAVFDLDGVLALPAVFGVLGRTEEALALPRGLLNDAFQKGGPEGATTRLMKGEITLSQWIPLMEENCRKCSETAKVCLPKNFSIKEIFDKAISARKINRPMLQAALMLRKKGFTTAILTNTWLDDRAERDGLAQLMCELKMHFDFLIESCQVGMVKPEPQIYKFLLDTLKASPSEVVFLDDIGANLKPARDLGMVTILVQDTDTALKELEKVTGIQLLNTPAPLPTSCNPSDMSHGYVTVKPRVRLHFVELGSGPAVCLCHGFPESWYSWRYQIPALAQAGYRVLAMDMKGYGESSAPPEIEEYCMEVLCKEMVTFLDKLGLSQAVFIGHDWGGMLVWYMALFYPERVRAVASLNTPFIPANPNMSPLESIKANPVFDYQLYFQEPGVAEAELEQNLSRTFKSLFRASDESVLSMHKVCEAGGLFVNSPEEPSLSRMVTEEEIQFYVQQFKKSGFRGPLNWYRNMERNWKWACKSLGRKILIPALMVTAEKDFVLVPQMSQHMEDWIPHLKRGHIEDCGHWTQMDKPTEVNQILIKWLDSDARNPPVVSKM
# Mus musculus = organism: Mus musculus; assay: animal or person; conditions: Kunming, Ear, po, read-out: INH
# Description: Antiinflammatory activity in Kunming mouse assessed as inhibition of xylene-induced ear edema at 150 mg/kg, po administered 45 mins prior to xylene challenge measured 15 mins post challenge
# [2] = molecular target: T2, Bifunctional epoxide hydrolase 2 (Homo sapiens, UniProt P34913)
# T2 sequence (P34913 whole entry): T1 sequence (whole entry)
# Description: Inhibition of recombinant human sEH expressed in Escherichia coli assessed as inhibition of substrate PHOME hydrolysis to 6-methoxy-2-naphthaldehyde after 5 mins by fluorescence assay
Structure (SMILES),inhibition [1] [%],inhibition in vivo at 150 mg/kg (Mus musculus) [%],IC50 [2] [µM]
CC(C)(C)OC(=O)NC(Cc1c[nH]c2ccccc12)C(=O)Oc1cccc2oc(=O)[nH]c12 (stereo not drawn),79.6,61,
O=c1[nH]c2c(OS(=O)(=O)c3ccccc3)cccc2o1,36,,
O=c1[nH]c2c(OS(=O)(=O)c3ccc(Cl)cc3)cccc2o1,13.6,,
CC(NC(=O)OC(C)(C)C)C(=O)Oc1cccc2oc(=O)[nH]c12 (stereo not drawn),95.7,40.7,16.4
O=C(Oc1cccc2oc(=O)[nH]c12)c1ccc(Cl)cc1,27.8,,
O=C(Oc1cccc2oc(=O)[nH]c12)c1ccccc1,28,,
CC(C)C(NC(=O)OC(C)(C)C)C(=O)Oc1cccc2oc(=O)[nH]c12 (stereo not drawn),48,46.5,
O=c1[nH]c2c(OS(=O)(=O)c3cccc(Cl)c3)cccc2o1,24.5,,
Cc1ccccc1C(=O)Oc1cccc2oc(=O)[nH]c12,26.2,,
O=c1[nH]c2c(OS(=O)(=O)c3ccccc3[N+](=O)[O-])cccc2o1,36.1,,
CC(C)(C)OC(=O)N1CCCC1C(=O)Oc1cccc2oc(=O)[nH]c12 (stereo not drawn),101,51.5,1.72
O=c1[nH]c2c(O[C@@H]3O[C@H](CO)[C@H](O)[C@H](O)[C@H]3O)cccc2o1,61,,
O=C(Oc1cccc2oc(=O)[nH]c12)c1ccc([N+](=O)[O-])cc1,28.1,,
Cc1ccc(C(=O)Oc2cccc3oc(=O)[nH]c23)cc1,98.3,,1.07
CC(C)(C)OC(=O)NC(Cc1ccccc1)C(=O)Oc1cccc2oc(=O)[nH]c12 (stereo not drawn),90.8,64,2.67
CC(C)(C)OC(=O)NCC(=O)Oc1cccc2oc(=O)[nH]c12,95.5,54.5,17.2
O=C(Oc1cccc2oc(=O)[nH]c12)c1ccccc1Cl,30.8,,
CSCCC(NC(=O)OC(C)(C)C)C(=O)Oc1cccc2oc(=O)[nH]c12 (stereo not drawn),99.6,24.8,3.02
O=c1[nH]c2c(OS(=O)(=O)c3cccc([N+](=O)[O-])c3)cccc2o1,31.6,,
Cc1ccccc1S(=O)(=O)Oc1cccc2oc(=O)[nH]c12,28,,
Cc1ccc(S(=O)(=O)Oc2cccc3oc(=O)[nH]c23)cc1,39.9,,
O=c1[nH]c2c(OS(=O)(=O)c3ccc([N+](=O)[O-])cc3)cccc2o1,28.8,,
Cc1cccc(S(=O)(=O)Oc2cccc3oc(=O)[nH]c23)c1,30.9,,
Cc1cccc(C(=O)Oc2cccc3oc(=O)[nH]c23)c1,24.4,,
O=C(Oc1cccc2oc(=O)[nH]c12)c1cccc(Cl)c1,25.3,,
O=C(Oc1cccc2oc(=O)[nH]c12)c1cccc([N+](=O)[O-])c1,92.9,,3
O=C(Oc1cccc2oc(=O)[nH]c12)c1ccccc1[N+](=O)[O-],29.2,,
O=c1[nH]c2c(O[C@@H]3O[C@H](CO)[C@@H](O)[C@H](O)[C@H]3O)cccc2o1,45.5,,
O=c1[nH]c2c(OS(=O)(=O)c3ccccc3Cl)cccc2o1,15.2,,
